Patent publication US20150141411A1, “SUBSTITUTED 3,4-DIHYDRO-2H-PYRIDO[1,2-A]PYRAZINE-1,6-DIONE DERIVATIVES USEFUL FOR THE TREATMENT OF (INTER ALIA) ALZHEIMER'S DISEASE” (Janssen Pharmaceuticals, Inc., priority 2012, published 2015)

How the values were obtained:
Design in all cases: species or system mouse
Aβ38 = assay: In vivo efficacy: brain soluble Aβ38 in non-transgenic rodents (MSD electrochemiluminescence multiplex); conditions: Mus musculus, po, 4 h, dose 30 mg/kg oral dosing, brain soluble fraction, animals sacrificed after 4 h, untreated animals (Ctrl) set at 100, read-out: Aβ38 (% vs Ctrl)_Mean
Description: (§1) To determine whether acute administration of an Aβ38 increasing agents would increase Aβ38 levels in vivo, non-transgenic rodents, e.g. mice or rats were used. Animals treated with the Aβ38 increasing agents were examined and compared to those untreated or treated with vehicle and brain levels of soluble Aβ42, Aβ40, Aβ38, and Aβ37 were quantitated by MSD electrochemiluminescence detection technology. Treatment periods varied from hours (h) to days and were adjusted based on the results of the Aβ38 increase once a time course of onset of effect could be established.
(§2) A typical protocol for measuring Aβ38 increase in vivo is shown but it is only one of many variations that could be used to optimize the levels of detectable Aβ. For example, Aβ38 increasing agents were formulated in 20% of Captisol® (a sulfobutyl ether of β-cyclodextrin) in water or 20% hydroxypropyl βcyclodextrin. The Aβ38 increasing agents were administered as a single oral dose or by any acceptable route of administration to overnight fasted animals. After 4 h, the animals were sacrificed and Aβ38 levels were analysed.
(§3) Blood was collected by decapitation and exsanguinations in EDTA-treated collection tubes. Blood was centrifuged at 1900 g for 10 minutes (min) at 4° C. and the plasma recovered and flash frozen for later analysis. The brain was removed from the cranium and hindbrain. The cerebellum was removed and the left and right hemisphere were separated. The left hemisphere was stored at −18° C. for quantitative analysis of test compound levels. The right hemisphere was rinsed with phosphate-buffered saline (PBS) buffer and immediately frozen on dry ice and stored at −80° C. until homogenization for biochemical assays.
(§4) Mouse brains from non-transgenic animals were resuspended in 8 volumes of 0.4% DEA (diethylamine)/50 mM NaCl containing protease inhibitors (Roche-11873580001 or 04693159001) per gram of tissue, e.g. for 0.158 g brain, add 1.264 ml of 0.4% DEA. All samples were homogenized in the FastPrep-24 system (MP Biomedicals) using lysing matrix D (MPBio #6913-100) at 6 m/s for 20 seconds. Homogenates were centrifuged at 20800×g for 5 min and supernatants collected. Supernatants were centrifuged at 221.300×g for 50 min. The resulting high speed supernatants were then transferred to fresh eppendorf tubes. Nine parts of supernatant were neutralized with 1 part 0.5 M Tris-HCl pH 6.8 and used to quantify Aβ.
(§5) To quantify the amount of Aβ42, Aβ40, Aβ38, and Aβ37 in the soluble fraction of the brain homogenates, simultaneous specific detection of Aβ42, Aβ40, Aβ38, and Aβ37 was performed using MSD's electro-chemiluminescence multiplex detection technology. In this assay purified monoclonal antibodies specific for Abeta37 (JRD/Aβ37/3), Abeta38 (J&JPRD/Aβ38/5), Abeta40 (JRF/cAβ40/28), and Abeta42 (JRF/cAβ42/26) were coated on MSD 4-plex plates. Briefly, the standards (a dilution of synthetic Aβ42, Aβ40, Aβ38, and Aβ37) were prepared in 1.5 ml Eppendorf tube in Ultraculture, with final concentrations ranging from 10000 to 0.3 pg/m. The samples and standards were co-incubated with Sulfo-tag labelled JRF/rAβ/2 antibody to the N-terminus of Aβ as detector antibody. 50 μl of conjugate/sample or conjugate/standards mixtures were then added to the antibody-coated plate. The plate was allowed to incubate overnight at 4° C. in order to allow formation of the antibody-amyloid complex. Following this incubation and subsequent wash steps the assay was finished by adding read buffer according to the manufacturer's instructions (MesoScale Discovery, Gaitherburg, Md.).
(§6) The SULFO-TAG emits light upon electrochemical stimulation initiated at the electrode. MSD Sector instrument SI6000 was used for signal read-out.
In this model a Aβ38 increase compared to untreated animals would be advantageous, in particular a Aβ38 increase with at least 10%, more in particular a Aβ38 increase with at least 20%. […]

Aβ42 = assay: In vivo efficacy: brain soluble Aβ42 in non-transgenic rodents (MSD electrochemiluminescence multiplex); conditions: Mus musculus, po, 4 h, dose 30 mg/kg oral dosing, brain soluble fraction, animals sacrificed after 4 h, untreated animals (Ctrl) set at 100, read-out: Aβ42 (% vs Ctrl)_Mean
Description: as §1, with “Aβ42 lowering agent” for “Aβ38 increasing agents”, “reduce Aβ42” for “increase Aβ38”, “Meso Scale Discovery's (MSD)” for “MSD”, “Aβ42 lowering” for “Aβ38 increase”
as §2, with “measuring Aβ42 lowering” for “measuring Aβ38 increase”, “example, Aβ42 lowering compounds” for “example, Aβ38 increasing agents”, “(a sulfo-butyl” for “(a sulfobutyl”, “The Aβ42 lowering” for “The Aβ38 increasing”, “and Aβ42” for “and Aβ38”
as §3, §4
as §5, with “(Meso Scale” for “(MesoScale”
as §6
In this model a Aβ42 lowering compared to untreated animals would be advantageous, in particular a Aβ42 lowering with at least 10%, more in particular a Aβ42 lowering with at least 20%. […]

Aβ40 = assay: In vivo efficacy: brain soluble Aβ40 in non-transgenic rodents (MSD electrochemiluminescence multiplex); conditions: Mus musculus, po, 4 h, dose 30 mg/kg oral dosing, brain soluble fraction, animals sacrificed after 4 h, untreated animals (Ctrl) set at 100, read-out: Aβ40 (% vs Ctrl)_Mean
Description: as §1, with “Aβ42 lowering agent” for “Aβ38 increasing agents”, “reduce Aβ42” for “increase Aβ38”, “Meso Scale Discovery's (MSD)” for “MSD”, “Aβ42 lowering” for “Aβ38 increase”
as §2, with “measuring Aβ42 lowering” for “measuring Aβ38 increase”, “example, Aβ42 lowering compounds” for “example, Aβ38 increasing agents”, “(a sulfo-butyl” for “(a sulfobutyl”, “The Aβ42 lowering” for “The Aβ38 increasing”, “and Aβ42” for “and Aβ38”
as §3, §4
as §5, with “(Meso Scale” for “(MesoScale”
as §6
The results are shown in Table 5 (dose 30 mg/kg oral dosing) (value for untreated animals as control (Ctrl) was set at 100): […]

Compound: Cc1cn(-c2ccc3n(c2=O)CC(C)N(Cc2c[nH]c4cc(C(F)(F)F)ccc24)C3=O)cn1 (stereo not drawn) [compound 203]
- response vs control in vivo at 30 mg/kg (Aβ38): 133%
- response vs control in vivo at 30 mg/kg (Aβ42): 67%
- response vs control in vivo at 30 mg/kg (Aβ40): 137%
